biological target: T1, mGlyT-1b (Mus musculus, UniProt P28571); assay: Glycine Uptake Inhibition Assay (mGlyT-1b); format: cell-based
T1 construct: host or cells: Flp-in-CHO
T1 sequence (P28571 1-651 isoform P28571-2): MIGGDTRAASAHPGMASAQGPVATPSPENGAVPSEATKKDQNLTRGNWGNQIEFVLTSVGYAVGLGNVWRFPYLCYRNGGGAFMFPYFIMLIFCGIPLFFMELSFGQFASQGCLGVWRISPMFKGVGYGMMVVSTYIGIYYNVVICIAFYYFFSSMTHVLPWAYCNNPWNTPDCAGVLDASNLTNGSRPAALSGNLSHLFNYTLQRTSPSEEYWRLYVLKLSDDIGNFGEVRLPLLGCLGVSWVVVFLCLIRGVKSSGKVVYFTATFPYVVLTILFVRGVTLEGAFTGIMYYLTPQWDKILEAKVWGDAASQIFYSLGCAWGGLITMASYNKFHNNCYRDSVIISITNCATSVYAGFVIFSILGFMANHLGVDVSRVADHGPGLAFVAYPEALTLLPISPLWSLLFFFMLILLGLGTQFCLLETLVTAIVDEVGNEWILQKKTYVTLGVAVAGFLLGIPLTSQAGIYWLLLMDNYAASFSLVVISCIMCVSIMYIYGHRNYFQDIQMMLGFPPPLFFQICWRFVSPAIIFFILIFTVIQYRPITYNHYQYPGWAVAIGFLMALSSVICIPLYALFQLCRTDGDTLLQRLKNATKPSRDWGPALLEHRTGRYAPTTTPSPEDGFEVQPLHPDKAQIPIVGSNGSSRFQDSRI
Procedure: DMEM complete medium: Nutrient mixture F-12 (Gibco Life-technologies), fetal bovine serum (FBS) 5%, (Gibco life technologies), Penicillin/Streptomycin 1% (Gibco life technologies), Hygromycin 0.6 mg/ml (Gibco life technologies), Glutamine 1 mM Gibco life technologies)
Uptake buffer (UB): 150 mM NaCl, 10 mM Hepes-Tris, pH 7.4, 1 mM CaCl2, 2.5 mM KCl, 2.5 mM MgSO4, 10 mM (+) D-glucose.
Flp-in™-CHO (Invitrogen Cat n° R758-07) cells stably transfected with mGlyT1b cDNA.
Glycine Uptake Inhibition Assay (mGlyT-1b)
On day 1 mammalian cells, (Flp-in™-CHO), transfected with mGlyT-1b cDNA, were plated at the density of 40,000 cells/well in complete F-12 medium, without hygromycin in 96-well culture plates. On day 2, the medium was aspirated and the cells were washed twice with uptake buffer (UB). The cells were then incubated for 20 min at 22° C. with either (i) no potential competitor, (ii) 10 mM non-radioactive glycine, (iii) a concentration of a potential inhibitor. A range of concentrations of the potential inhibitor was used to generate data for calculating the concentration of inhibitor resulting in 50% of the effect (e.g. IC50, the concentration of the competitor inhibiting glycine uptake of 50%). A solution was then immediately added containing [^3H]-glycine 60 nM (11-16 Ci/mmol) and 25 μM non-radioactive glycine. The plates were incubated with gentle shaking and the reaction was stopped by aspiration of the mixture and washing (three times) with ice-cold UB. The cells were lysed with scintillation liquid, shaken 3 hours and the radioactivity in the cells was counted using a scintillation counter.

Going from `COc1ccc(C(=O)N(CC(=O)Nc2ccc(F)c(Cl)c2)c2ccccc2)cc1` [Example 108, N-[(3-Chloro-4-fluoro-phenylcarbamoyl)-methyl]-4-methoxy-N-phenyl-benzamide] to `COc1ccc(C(=O)N(CC(=O)Nc2ccc(C)c(Cl)c2)c2ccccc2)cc1` [Example 110, N-[(3-Chloro-4-methyl-phenylcarbamoyl)-methyl]-4-methoxy-N-phenyl-benzamide], the IC50 rises from 182 nM to 369 nM (2-fold). The first is the more potent here.

`O=C(CN(C(=O)c1cc2ccccc2s1)c1ccccc1)Nc1ccc(Cl)c(Cl)c1` [Example 113, Benzo[b]thiophene-2-carboxylic acid [(3,4-dichloro-phenylcarbamoyl)-methyl]-phenyl-amide] and `CN(C)c1ccc(C(=O)N(CC(=O)Nc2ccc(Cl)c(Cl)c2)c2ccccc2)cc1` [Example 116, N-[(3,4-Dichloro-phenylcarbamoyl)-methyl]-4-dimethylamino-N-phenyl-benzamide] are within 1.5-fold of each other in IC50: 150 nM for the first, 191 nM for the second.

Compared with `O=C(CN(C(=O)c1ccc(OC(F)(F)F)cc1)c1ccccc1)Nc1ccc(Cl)c(Cl)c1` [Example 114, N-[(3,4-Dichloro-phenylcarbamoyl)-methyl]-N-phenyl-4-trifluoromethoxy-benzamide], `O=C(CN(C(=O)COc1ccc(Cl)cc1)c1ccccc1)Nc1ccc(Cl)c(Cl)c1` [Example 118, 2-(4-Chloro-phenoxy)-N-[(3,4-dichloro-phenylcarbamoyl)-methyl]-N-phenyl-acetamide] is 2.8-fold higher in IC50: 91 nM for the first, 259 nM for the second. The first is the more potent here.

Compared with `COc1ccc(C(=O)N(CC(=O)Nc2ccc(Cl)c(Cl)c2)c2cccc(Cl)c2)cc1` [Example 117, N-(3-Chloro-phenyl)-N-[(3,4-dichloro-phenylcarbamoyl)-methyl]-4-methoxy-benzamide], `COc1ccc(C(=O)N(CC(=O)Nc2ccc(Cl)c(Cl)c2)C2CCCC2)cc1` [Example 126, N-Cyclopentyl-N-[(3,4-dichloro-phenylcarbamoyl)-methyl]-4-methoxy-benzamide] is 1.7-fold higher in IC50: 210 nM for the first, 357 nM for the second.

Going from `O=C(CN(Cc1ccccc1F)C(=O)c1ccc(N2CCOCC2)nc1)Nc1cccc(Cl)c1` [Example 119, N-[(3-Chloro-phenylcarbamoyl)-methyl]-N-(2-fluoro-benzyl)-6-morpholin-4-yl-nicotinamide] to `O=C(CN(Cc1ccccc1F)C(=O)c1ccc(Cl)nc1)Nc1cccc(Cl)c1` [Example 120, 6-Chloro-N-[(3-chloro-phenylcarbamoyl)-methyl]-N-(2-fluoro-benzyl)-nicotinamide], the IC50 falls from 355 nM to 182 nM (2-fold).

— patent US7589089B2, “Inhibitors for GlyT-1” (Hoffmann-La Roche Inc., priority 2006, dated 2009)
